Values quoted from earlier work as cited in publication PMC12682947, “Identification of New KCNT1‐Epilepsy Drugs by In Silico, Cell, and Drosophila Modeling” (Annals of Neurology, 2025).
pIC50: −log10 of the molar value. Where a name gives a salt, the structure may show the parent alone.

System: hERG potassium channels
Settings: read-out: IC50 for inhibition of hERG potassium channels; cited from earlier work

SMILES: Cc1c(O)cccc1C(=O)N[C@@H](CSc1ccccc1)[C@H](O)CN1C[C@H]2CCCC[C@H]2C[C@H]1C(=O)NC(C)(C)C [nelfinavir mesylate]
- pIC50: 4.94
